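Interpolation was linear, between the two tested concentrations surrounding the appropriate level; five concentrations were tested over 48 hours in 96-well plates. At the TGI there is no net growth.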
Tests used:
Test in all cases: NCI-60 cell line screen, 48 h
PC-3 prostate = tested on: PC-3 prostate
COLO 205 colon = tested on: COLO 205 colon
MDA-N = tested on: MDA-N
NCI/ADR-RES ovarian = tested on: NCI/ADR-RES ovarian
MOLT-4 leukemia = tested on: MOLT-4 leukemia
M14 melanoma = tested on: M14 melanoma
MDA-MB-231 breast = tested on: MDA-MB-231 breast
NCI-H23 lung = tested on: NCI-H23 lung
SF-539 CNS = tested on: SF-539 CNS
HOP-62 NSCLC = tested on: HOP-62 NSCLC
NCI-H522 lung = tested on: NCI-H522 lung
UO-31 renal = tested on: UO-31 renal
786-0 renal = tested on: 786-0 renal
CCRF-CEM leukemia = tested on: CCRF-CEM leukemia
OVCAR-3 ovarian = tested on: OVCAR-3 ovarian
MDA-MB-435 = tested on: MDA-MB-435
A549 NSCLC = tested on: A549 NSCLC
OVCAR-8 ovarian = tested on: OVCAR-8 ovarian
A498 renal = tested on: A498 renal
HCT-15 colon = tested on: HCT-15 colon
BT-549 breast = tested on: BT-549 breast
ACHN renal = tested on: ACHN renal
DU-145 prostate = tested on: DU-145 prostate
HT29 colon = tested on: HT29 colon
UACC-257 melanoma = tested on: UACC-257 melanoma
HCC-2998 colon = tested on: HCC-2998 colon
NCI-H460 lung = tested on: NCI-H460 lung
SK-MEL-28 melanoma = tested on: SK-MEL-28 melanoma
IGROV1 ovarian = tested on: IGROV1 ovarian
SK-MEL-2 melanoma = tested on: SK-MEL-2 melanoma
MALME-3M melanoma = tested on: MALME-3M melanoma
SK-MEL-5 melanoma = tested on: SK-MEL-5 melanoma
CAKI-1 renal = tested on: CAKI-1 renal
OVCAR-4 ovarian = tested on: OVCAR-4 ovarian
TK-10 renal = tested on: TK-10 renal
SF-295 CNS = tested on: SF-295 CNS
LOX IMVI melanoma = tested on: LOX IMVI melanoma
NCI-H226 lung = tested on: NCI-H226 lung
SNB-19 CNS = tested on: SNB-19 CNS
HS 578T breast = tested on: HS 578T breast
K-562 leukemia = tested on: K-562 leukemia
HOP-92 NSCLC = tested on: HOP-92 NSCLC
EKVX NSCLC = tested on: EKVX NSCLC
HCT-116 colon = tested on: HCT-116 colon
SNB-75 CNS = tested on: SNB-75 CNS
SF-268 CNS = tested on: SF-268 CNS
T-47D breast = tested on: T-47D breast
MCF7 breast = tested on: MCF7 breast
OVCAR-5 ovarian = tested on: OVCAR-5 ovarian
HL-60(TB) leukemia = tested on: HL-60(TB) leukemia
SN12C renal = tested on: SN12C renal
RPMI-8226 leukemia = tested on: RPMI-8226 leukemia
SW-620 colon = tested on: SW-620 colon
SK-OV-3 ovarian = tested on: SK-OV-3 ovarian
UACC-62 melanoma = tested on: UACC-62 melanoma
RXF 393 renal = tested on: RXF 393 renal
KM12 colon = tested on: KM12 colon

Measured: TGI

O=C(O)CCC(NC(=O)/C(=C/c1ccccc1)NC(=O)c1ccccc1)C(=O)O (configuration not stated)
> 100 µM: PC-3 prostate | COLO 205 colon | MDA-N | NCI/ADR-RES ovarian | MOLT-4 leukemia | M14 melanoma | MDA-MB-231 breast | NCI-H23 lung | SF-539 CNS | HOP-62 NSCLC | NCI-H522 lung | UO-31 renal | 786-0 renal | CCRF-CEM leukemia | OVCAR-3 ovarian | MDA-MB-435 | A549 NSCLC | OVCAR-8 ovarian | A498 renal | HCT-15 colon | BT-549 breast | ACHN renal | DU-145 prostate | HT29 colon | UACC-257 melanoma | HCC-2998 colon | NCI-H460 lung | SK-MEL-28 melanoma | IGROV1 ovarian | SK-MEL-2 melanoma | MALME-3M melanoma | SK-MEL-5 melanoma | CAKI-1 renal | OVCAR-4 ovarian | TK-10 renal | SF-295 CNS | LOX IMVI melanoma | NCI-H226 lung | SNB-19 CNS | HS 578T breast | K-562 leukemia | HOP-92 NSCLC | EKVX NSCLC | HCT-116 colon | SNB-75 CNS | SF-268 CNS | T-47D breast | MCF7 breast | OVCAR-5 ovarian | HL-60(TB) leukemia | SN12C renal | RPMI-8226 leukemia | SW-620 colon | SK-OV-3 ovarian | UACC-62 melanoma | RXF 393 renal | KM12 colon
